{"source": "patent US20160319367A1", "about": "“MEANS AND METHODS FOR TYPING A BREAST CANCER PATIENT AND ASSIGNING THERAPY BASED ON THE TYPING” (STICHTING HET NEDERLANDS KANKER INSTITUUT-ANTONI VAN …, priority 2013, published 2016)", "key": {"ERα": {"tested_on": "ERα", "assay": "ERα ChIP-seq (ERα/chromatin interactions) in ZR-75-1 cells", "assay_type": "cell-based, human", "settings": "control ZR-75-1 cells (pRS-GFP), hormone depleted 72 hours, ligand for 48 hours", "method": "Chromatin Immunoprecipitations (ChIP) were performed as described before (Schmidt et al., 2009. Methods 48: 240-8). For each ChIP, 10 μg of antibody was used, and 100 μl of Protein A magnetic beads (Invitrogen). The antibody used was raised against ERα (SC-543; Santa Cruz).\nChIP DNA was amplified as described (Schmidt et al., 2009. Methods 48: 240-8). Sequences were generated by the Illumina Hiseq 2000 genome analyser (using 50 bp reads), and aligned to the Human Reference Genome (assembly hg19, February 2009). Enriched regions of the genome were identified by comparing the ChIP samples to mixed input using the MACS peak caller (Zhang et al., 2008. Genome Biol 9: R137) version 1.3.7.1.\nChIP-seq data snapshots were generated using the Integrative Genome Viewer IGV 2.1 (www.broadinstitute.org/igv/). Motif analyses were performed through the Cistrome (cistrome.org), applying the SeqPos motif tool (He et al., 2010. Nat Genet 42: 343-7). The genomic distributions of binding sites were analysed using the cis-regulatory element annotation system (CEAS) (Ji et al., 2006. Nucleic Acids Res 34: W551-4). The genes closest to the binding site on both strands were analysed. If the binding region is within a gene, CEAS software indicates whether it is in a 5′UTR, a 3′UTR, a coding exon, or an intron. Promoter is defined as 3 kb upstream from RefSeq 5′ start. […]"}, "ZR-75-1 cells [1]": {"tested_on": "ZR-75-1 cells", "assay": "RNA-seq global gene expression analysis in ZR-75-1 cells", "assay_type": "cell-based, human", "settings": "hormone depletion for 72 hours, treated for 48 hours, RNAseq, p<0.05", "protocol": "Transcriptome sequencing analysis of the cell line ZR-75-1 with stable USP9X knockdown or a control vector were performed using RNA-Seq. The reads (14-30 million 50 bp single-end) were mapped to the human reference genome (hg19) using TopHat (Trapnell et al., 2009. Bioinformatics 25: 1105-1127), which allows to span exon-exon splice junctions. TopHat was supplied with a known set of gene models (Ensembl version 64). The open-source tool HTSeq-Count was used to obtain gene expressions. This tool generates a list of the total number of uniquely mapped sequencing reads for each gene that is present in the provided Gene Transfer Format (GTF) file. In order to identify differentially expressed genes, the random sampling model in the R package […] al., 2010. Bioinformatics 26: 136-8.28) was used. […] The input of this method is the absolute number of reads for a gene, which is the output of HTSeq-count. Genes with no expression across both samples in the comparison were discarded from the dataset. The expression levels of the remaining genes were added with 1 in order to avoid negative values after log 2 transformation during the normalization step within this method. […] We therefore asked whether USP9X knockdown in tamoxifen-treated cells would also give rise to a typical estradiol-responsive gene set. […]"}, "ZR-75-1 cells [2]": {"tested_on": "ZR-75-1 cells", "assay": "Colony formation / proliferation assay in ZR-75-1 cells", "assay_type": "cell-based, human", "settings": "1 μM 4OH-tamoxifen or 10^-7 M fulvestrant", "protocol": "The human breast cancer cell lines ZR-75-1 (ATCC CRL-1500), MDA-MB-231 (ATCC HTB-26) and T47D (ATCC HTB133) were cultured in DMEM supplemented with 10% FCS, 2 mM glutamine, 100 μg/ml penicillin, 100 μg/ml streptomycin, and 1 nM estradiol at 37° C. in 5% CO2. […] Phoenix cells (ATCC CRL-3214) were cultured at 37° C. in 5% CO2 in DMEM with 10% FCS, 2 mM glutamine, 100 μg/ml penicillin, and 100 μg/ml streptomycin.\nCells were infected with retroviral supernatant and selected with puromycin (2.0 μg/ml). […] When colonies appeared, cells were fixed in MeOH/HAc (3:1) and subsequently stained with 50% MeOH/10% HAc/0.1% Coomassie."}, "[3]": {"settings": "cited from earlier work"}, "[4]": {"settings": "early breast cancer, 5 years of adjuvant treatment"}}, "data": [{"smiles": "CC/C(=C(\\c1ccc(O)cc1)c1ccc(OCCN(C)C)cc1)c1ccccc1", "note": "[4OH-tamoxifen]", "values": [{"measurement": "ERα/chromatin interactions", "setting": "ERα", "value": "far less pronounced"}, {"measurement": "number of genes with altered expression as compared to vehicle", "setting": "ZR-75-1 cells [1]", "value": 1906, "unit": "genes"}]}, {"smiles": "C[C@]12CC[C@@H]3c4ccc(O)cc4CC[C@H]3[C@@H]1CC[C@@H]2O", "note": "[estradiol]", "values": [{"measurement": "number of genes with altered expression as compared to vehicle", "setting": "ZR-75-1 cells [1]", "value": 8794, "unit": "genes"}]}, {"smiles": "C[C@]12CC[C@@H]3c4ccc(O)cc4C[C@@H](CCCCCCCCC[S+]([O-])CCCC(F)(F)C(F)(F)F)[C@H]3[C@@H]1CC[C@@H]2O", "note": "(stereo partly drawn) [fulvestrant, (7α,17β)-7-{9-[(4,4,5,5,5-pentafluoropentyl)sulfinyl]nonyl}estra-1,3,5(10)-triene-3,17-diol]", "values": [{"measurement": "cell proliferation", "setting": "ZR-75-1 cells [2]", "value": "proliferation arrest"}]}, {"smiles": "CC/C(=C(\\c1ccccc1)c1ccc(OCCN(C)C)cc1)c1ccccc1.O=C(O)CC(O)(CC(=O)O)C(=O)O", "note": "[tamoxifen, (Z)2-[4-(1,2-diphenyl-1-butenyl)phenoxy]-N, N-dimethylethanamine 2-hydroxy-1,2,3-propanetricarboxylate (1:1)]", "values": [{"measurement": "rate of disease recurrence", "setting": "[3]; [4]", "value": "almost halves"}, {"measurement": "reduction of annual breast cancer death rate", "setting": "[3]; [4]", "value": "one-third"}, {"measurement": "women who still develop recurrent disease despite adjuvant treatment", "setting": "[3]; in the next 15 years", "value": "one-third"}]}]}
